{"source": "paper PMC4624772", "about": "(PLoS Pathogens, 2015)", "target": "T1, MshE (VC0405) (Vibrio cholerae, UniProt Q9KUV7)", "T1 construct": "gene VC_0405", "T1 sequence (Q9KUV7 1-575)": "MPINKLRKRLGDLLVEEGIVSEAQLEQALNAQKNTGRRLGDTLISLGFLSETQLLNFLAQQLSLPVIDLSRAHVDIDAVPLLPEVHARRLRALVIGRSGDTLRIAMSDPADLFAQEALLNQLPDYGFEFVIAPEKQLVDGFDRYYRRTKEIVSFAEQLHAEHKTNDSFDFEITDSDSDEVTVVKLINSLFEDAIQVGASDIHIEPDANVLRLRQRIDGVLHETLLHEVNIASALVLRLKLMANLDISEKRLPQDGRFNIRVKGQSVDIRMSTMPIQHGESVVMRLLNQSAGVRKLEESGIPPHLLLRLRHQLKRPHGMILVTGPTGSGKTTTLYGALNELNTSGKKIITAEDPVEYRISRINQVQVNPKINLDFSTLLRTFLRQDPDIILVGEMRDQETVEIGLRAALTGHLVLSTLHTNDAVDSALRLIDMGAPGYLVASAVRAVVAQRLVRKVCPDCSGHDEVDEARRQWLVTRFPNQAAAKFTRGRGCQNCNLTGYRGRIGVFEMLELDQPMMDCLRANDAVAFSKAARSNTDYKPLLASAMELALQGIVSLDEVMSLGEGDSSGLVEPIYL", "test": "biochemical", "data": [{"smiles": "Nc1nc2c(ncn2[C@@H]2O[C@@H]3CO[P@](=O)(O)O[C@H]4[C@@H](O)[C@H](n5cnc6c(=O)[nH]c(N)nc65)O[C@@H]4CO[P@](=O)(O)O[C@H]3[C@H]2O)c(=O)[nH]1", "note": "[c-di-GMP]", "values": [{"measurement": "Kd", "result": "1900 ± 400", "unit": "nM"}]}]}
